Test results taken from PubChem BioAssay AID434987 (Southern Research Specialized Biocontainment Screening …, 2010).
Activity calls are given as the source filed them. How the calls were made is not given here.

System: M. tuberculosis H37Rv growth inhibition with meropenem
Assay: dose response, H37Rv, with and without meropenem (AID 434987);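 further: growth over 7 days at 37 °C before Alamar Blue read on day 9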
[1] = M. tuberculosis H37Rv growth inhibition, measured here: IC50 without meropenem
[2] = M. tuberculosis H37Rv growth inhibition, measured here: IC90 without meropenem
[3] = measured here: IC90 with meropenem

Row | SMILES | IC50 | IC50 [1] [µM] | IC90 [2] [µM] | IC90 [3] [µM]
1 | COc1ccc([N+](=O)[O-])cc1NC(=O)c1ccc(Br)s1 | > 100 µM (inactive) | > 100 | > 100 | > 100
2 | O=C(OCC(=O)c1ccc[nH]1)C1=COCCO1 | 18.3 µM | 88.8 | > 100 | > 100
3 | COC(=O)c1ccc(/C=N/Nc2nc(-c3ccc(C)cc3)cs2)cc1 | 10.9 µM | > 100 | > 100 | > 100
4 | C=C(C)COc1ccc2c(C)c(C)c(=O)oc2c1OCC(=C)C | 79.2 µM (inactive) | > 100 | > 100 | > 100
5 | CCC(=O)c1ccc(OCc2ccc(C(=O)OC)cc2)c(OC)c1 | 27.9 µM | > 100 | > 100 | > 100
6 | COC(=O)c1sc(-c2ccc(Cl)cc2)cc1NC(=O)COCC(=O)O | 15.2 µM | 39.5 | > 100 | 44.8
7 | CCNCC(O)c1cccc(O)c1 (configuration not stated) | > 100 µM (inactive) | > 100 | > 100 | > 100
8 | COc1ccc2cc(C3=CCCCC3)ncc2c1 | 74.8 µM (inactive) | > 100 | > 100 | > 100
9 | COc1ccc(NC(=O)CCn2c(=O)c3cccn3c3ccccc32)cc1 | > 100 µM (inactive) | > 100 | > 100 | > 100
10 | CN(c1ccc(OCC(=O)OCC(=O)c2c(N)n(C)c(=O)n(C)c2=O)cc1)S(=O)(=O)c1ccc2ccccc2c1 | 26.2 µM | > 100 | > 100 | > 100
11 | Nc1nc(Sc2ncccc2[N+](=O)[O-])n[nH]1 | 21.6 µM (inactive) | 37.4 | > 50 | 77.1
12 | O=c1c2c3n(c(=S)nc2[nH]n1-c1ccccc1)CCCCC3 | 12.4 µM (inactive) | 27.1 | > 100 | 13.3
13 | Cc1noc(/C=C/Nc2ccc(F)cc2F)c1[N+](=O)[O-] | > 100 µM (inactive) | > 100 | > 100 | > 100
14 | CC/C(=N\NC(=O)c1ccc(-c2ccccc2)cc1)C12CC3CC(CC(C3)C1)C2 | 40.7 µM (inactive) | 41.1 | 47.9 | 43.7
15 | Cc1ccc(CN2C(=O)N/C(=C\c3ccc(-c4ccc(C(=O)O)cc4C)o3)C2=O)cc1 | 5.14 µM | 23.8 | > 100 | 14.7
16 | O=C(c1cnn2c(C(F)(F)F)cc(-c3cccs3)nc12)N1CCN(C(c2ccccc2)c2ccccc2)CC1 | 26.6 µM (inactive) | 32.5 | > 100 | > 100
17 | Fc1ccc(NC(=S)NCc2cccs2)cc1 | > 100 µM (inactive) | > 100 | > 100 | > 100
18 | CCCc1cc(C(=O)OCC(=O)N2CCN(c3ccc(OC)cc3)CC2)sc1C | > 100 µM (inactive) | > 100 | > 100 | > 100
19 | CCOC(=O)c1c(C)n(-c2ccccc2)c2ccc(OCCN(C)C)cc12 | 5.45 µM | 62 | > 100 | 21.7
20 | Cn1c(/C=C/c2ccc(Br)cc2)c([N+](=O)[O-])c(=O)n(C)c1=O | > 100 µM (inactive) | > 100 | > 100 | > 100
21 | CCOCC(=O)Nc1cc(C(F)(F)F)ccc1Oc1cccc(Br)c1 | 56.9 µM (inactive) | > 100 | > 100 | > 100
22 | CC1CCCN(C(=O)C2CCN(c3ncnc4c3nc3n4CCCCC3)CC2)C1 (configuration not stated) | 46.7 µM (inactive) | 89.8 | > 100 | 49.7
23 | CC(C)(C)NS(=O)(=O)c1ccc(NC(=O)C(Sc2ccccc2)c2ccccc2)cc1 (configuration not stated) | > 100 µM (inactive) | > 100 | > 100 | > 100
